Laboratory results taken from patent US6262075A, “Piperidone tachykinin antagonists” (Pfizer Inc, priority 1996, dated 2001).

Each compound was assayed against T1, human NK2 receptor (Homo sapiens, UniProt P21452) (assay: affinity for the human NK2 receptor, competition with [^3 H] NKA for binding to membranes prepared from Chinese hamster ovary cells). Details: membranes from Chinese hamster ovary cells expressing the cloned human NK2 receptor, negative logarithm of the molar affinity.
T1 construct: expressed in transfected cells; host or cells: Chinese hamster ovary cells (membranes)
T1 sequence (P21452 1-398): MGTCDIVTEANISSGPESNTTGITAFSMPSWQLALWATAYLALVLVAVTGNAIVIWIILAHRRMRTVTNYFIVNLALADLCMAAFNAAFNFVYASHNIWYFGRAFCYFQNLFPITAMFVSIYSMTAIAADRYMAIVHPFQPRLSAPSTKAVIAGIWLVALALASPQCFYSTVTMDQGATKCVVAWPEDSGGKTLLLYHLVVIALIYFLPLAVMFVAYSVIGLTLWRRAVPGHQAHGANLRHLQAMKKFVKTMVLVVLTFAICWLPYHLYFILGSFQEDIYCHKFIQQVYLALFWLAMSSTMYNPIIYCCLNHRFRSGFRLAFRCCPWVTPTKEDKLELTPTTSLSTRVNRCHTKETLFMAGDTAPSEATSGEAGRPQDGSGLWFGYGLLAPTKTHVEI
Description: The affinity of the compounds of formula (I) and their salts for the human NK2 receptor can be tested in vitro by testing their ability to compete with [^3 H] or [^125 I]NKA (neurokinin A) for binding to membranes prepared from Chinese hamster ovary cells expressing the cloned human NK2 receptor. In this method, washed Chinese hamster ovary cell membranes are prepared as described for the previous method where IM9 cells are used instead. The membranes are incubated (90 min, 25° C.) with [^3 H] or [^125 I]NKA and with a range of concentrations of the test compound. Non-specific binding was determined in the presence of 10 μM NKA.
The affinity of a selection of the compounds of the preceding Examples for the human NK2 receptor was tested in vitro by testing their ability to compete with [^3 H] NKA for binding to membranes prepared from Chinese hamster ovary cells expressing the cloned human NK2 receptor using the method set out on page 26.
The "pKi" measurement is the negative logarithm of the molar affinity of the compound for the receptor as determined in radioligand binding assays using standard protocols.

First: O=C1CCC(CCN2CC(N3CCC(F)CC3)C2)(c2ccc(Cl)c(Cl)c2)CN1C1CCCCC1 (stereo not shown) [Example 2]
Second: O=C1CCC(CCN2CC(N3CCC(F)CC3)C2)(c2ccc(Cl)c(Cl)c2)CN1C1(C2CC2)CCCC1 (stereo not shown) [Example 3]
The Ki of the first is 2-fold lower: 0.0501 nM for the first, 0.1 nM for the second. The first binds more tightly here.

Going from `O=C1CC[C@](CCN2CC(N3CCC(F)CC3)C2)(c2ccc(Cl)c(Cl)c2)CN1CC1CCC(F)(F)CC1` [Example 1] to `O=C1CCC(CCN2CC(N3CCC(F)CC3)C2)(c2ccc(Cl)c(Cl)c2)CN1CCC1CC1` (stereo not shown) [Example 4], the Ki rises from 0.631 nM to 2.51 nM (4-fold).
